Laboratory results as given in publication PMC10065799, “High-throughput profiling of sequence recognition by tyrosine kinases and SH2 domains using bacterial peptide display” (eLife, 2023).
Square brackets hold non-standard residues; d marks the D form. * marks the point of attachment. FITC = O=C1OC2(c3ccc(O)cc3Oc3cc(O)ccc32)c2ccc(NC(=S)*)cc21; pY = N[C@@H](Cc1ccc(OP(=O)(O)O)cc1)C(=O)O; Ahx = NCCCCCC(=O)O

T1: c-Abl kinase domain (Mus musculus, UniProt P00520)
T1 sequence (P00520 242-493 limits assumed): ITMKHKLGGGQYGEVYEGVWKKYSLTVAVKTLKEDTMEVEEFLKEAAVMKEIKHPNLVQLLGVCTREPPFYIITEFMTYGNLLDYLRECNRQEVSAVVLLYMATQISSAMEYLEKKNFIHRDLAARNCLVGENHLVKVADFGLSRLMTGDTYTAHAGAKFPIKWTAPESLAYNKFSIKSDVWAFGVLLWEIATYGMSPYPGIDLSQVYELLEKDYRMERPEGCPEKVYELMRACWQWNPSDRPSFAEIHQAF

B1: fluorescently-labeled c-Src-SH2 consensus peptide FITC-Ahx-GDG(pY)EEISPLLL-NH2 (peptide)
peptide: {FITC-Ahx}-GDG[pY]EEISPLLL-NH2
SMILES: CC[C@H](C)[C@H](NC(=O)[C@H](CCC(=O)O)NC(=O)[C@H](CCC(=O)O)NC(=O)[C@H](Cc1ccc(OP(=O)(O)O)cc1)NC(=O)CNC(=O)[C@H](CC(=O)O)NC(=O)CNC(=O)CCCCCNC(=S)Nc1ccc2c(c1)C(=O)OC21c2ccc(O)cc2Oc2cc(O)ccc21)C(=O)N[C@@H](CO)C(=O)N1CCC[C@H]1C(=O)N[C@@H](CC(C)C)C(=O)N[C@@H](CC(C)C)C(=O)N[C@@H](CC(C)C)C(N)=O
notes: also called fluorescent peptide; source: gift from the Amacher lab (Western Washington University)

What was measured:
c-Src kinase domain [1] = target: T2, c-Src kinase domain (Homo sapiens, UniProt P12931); assay: pTyr-Var library bacterial peptide display kinase screen (enrichment scores); type: biochemical; conditions: sheet "Src";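 further: log2 fold change in enrichment of variant over reference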
Fer kinase domain = assay: as above; type: biochemical, mouse; conditions: sheet "Fer"
EPHB1 kinase domain [2] = assay: as above; type: biochemical, human; conditions: for Screen (variant relative to reference peptide, measured in the pTyr-Var library screen): sheet "EPHB1", variant seq vs reference seq, bacterial peptide display enrichment; for Screen: sheet EPHB1, effect of the variant peptide relative to its reference peptide in the pTyr-Var library screen (enrichment scores)
EPHB2 kinase domain = assay: as above; type: biochemical, human; conditions: sheet EPHB2
c-Src kinase domain [3] = target: T2, c-Src kinase domain; assay: RP-HPLC assay to measure peptide phosphorylation kinetics; type: biochemical; conditions: purified peptide substrate
c-Abl kinase domain [4] = target: T1, c-Abl kinase domain; assay: as above; type: biochemical; conditions: purified peptide substrate
EPHB1 kinase domain [5] = assay: ADP-Quest continuous fluorimetric kinase assay (initial rates of consensus peptides); type: biochemical, human; conditions: peptide 100 or 20 μM, kinase 10–50 nM; Figure 2C and supplement 2
Text: A fluorescence-based assay from Eurofins (ADP Quest) was used to measure the Michaelis-Menten kinetic parameters for phosphorylation of the consensus peptides by purified tyrosine kinase domains. In this assay, ADP production as a result of kinase activity is coupled to the production of resorufin, a fluorophore that emits signal at 590 nm. For all experiments, the assay reactions were set up as described in the provided assay kit protocol, in a 384 well plate format. The peptide solutions were serially diluted in 100 mM Tris, pH 8.0, and the kinases were diluted to 50 nM in buffer (10 mM HEPES, 100 mM NaCl, 1 mM TCEP, 5 mM MgCl2, 10% (v/v) glycerol). The final reaction mixtures contained 10 nM of kinase with 100 μM of ATP. […] Phosphorylation reaction progress was monitored by measuring fluorescence at excitation 530 nm and emission 590 nm every 2 min at 37 °C on a plate reader (BioTek Synergy Neo 2). The fluorescence units (RFU) were converted to μM ADP by comparison to a standard curve, and the initial rates were extracted from the linear regime of the reaction progress curves. Initial rates were also measured for samples containing each kinase but lacking a peptide substrate, to account for background ATP hydrolysis. This background rate was subtracted from the rates measured in the presence of peptide. […]

c-Abl kinase domain [6] = target: T1, c-Abl kinase domain; assay: pTyr-Var library bacterial peptide display kinase screen (enrichment scores); type: biochemical; conditions: sheet "Abl"; effect of variant peptide relative to its reference peptide in pTyr-Var library screen (enrichment)
[7] = target: human c-Src SH2 domain (residues 143-250) (human, UniProt P12931-1 143-250, biotin on the Avi tag (co-expression with the biotin ligase BirA)); assay: fluorescence polarisation; direct titration: varying concentrations of c-Src SH2 with 30 nM fluorescent peptide, 15 min; 60 mM HEPES pH 7.2, 75 mM KCl, 75 mM NaCl, 1 mM EDTA, 0.05% Tween 20; 25 °C; quadratic binding equation; conditions: both partners purified
[8] = target: mouse c-Abl kinase domain (residues 232-502) (mouse) (UniProt P00520)
[9] = variant peptide versus its reference peptide in the pTyr-Var library screen
[10] = variant peptide relative to its reference peptide, pTyr-Var library screen enrichment
[11] = effect of the variant relative to its reference peptide in the pTyr-Var library screen
[12] = effect of the variant peptide relative to its reference peptide in the pTyr-Var library screen
[13] = value of the variant peptide against its reference peptide in the pTyr-Var library screen with Fer
[14] = effect of variant peptide relative to its reference peptide in the pTyr-Var library screen (enrichment scores)

Chain of mouse c-Abl kinase domain (residues 232-502) (mouse) (P00520 232-502): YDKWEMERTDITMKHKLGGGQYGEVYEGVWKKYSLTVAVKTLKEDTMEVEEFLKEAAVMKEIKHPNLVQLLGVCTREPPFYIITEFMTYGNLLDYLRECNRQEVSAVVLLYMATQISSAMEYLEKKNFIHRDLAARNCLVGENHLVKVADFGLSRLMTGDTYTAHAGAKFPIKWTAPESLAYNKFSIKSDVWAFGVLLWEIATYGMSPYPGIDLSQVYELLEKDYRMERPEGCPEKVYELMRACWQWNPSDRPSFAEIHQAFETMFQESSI

Molecule	Screen (c-Src kinase domain [1]; [12])	Screen (Fer kinase domain; [13])	Screen (EPHB1 kinase domain [2])	Screen (EPHB2 kinase domain; [14])	further results
DNEALYDTCFR [TUBB2B_Y208_I210T]					Screen (c-Src kinase domain [1]; [9]): -0.1626; Screen (Fer kinase domain; [10]): -0.2841; Screen (variant relative to reference peptide, measured in the pTyr-Var library screen) (EPHB1 kinase domain [2]): -0.7019; Screen (EPHB2 kinase domain; [11]): -0.7919
LDAFIYDAALL [GRIN2A_Y730_V734L]	0.1286	-0.3557	-0.2525	-0.3341	
TQNAVYSAANF [DDX5_Y535_G533A_YF]	0.6379	0.4164	1.023	1.01	
SNTFLYQLVFD [EXO1_Y284_N279S]	-0.03965	-0.008577	0.05167	-0.053	
NNDLCYWVLEL [IARS1_Y434_P437L]	1.285		-1.633	-2.3	
ADCRFYTFPQM [GAMT_Y223_A224T_YF]		-1.641	-1.572	-2.189	
DPLLTYWFPPK [LMNA_Y481_R482W]	3.284		4.875	5.36	
CFSSEYHFVGG [CTSC_Y345_Y340C_YF]	-0.6697		-0.7957	-0.9567	
ITNLLYHVVGG [GBA_Y412_W417G]	-0.2777	-1.01	0.07416	-0.0356	
CPSLLYSPVSS [CAMKK2_Y128_P127L]	2.179	2.071	3.226	2.723	
TLSGIYQFNIA [FOXL2_Y81_I84N_YF]	-0.3308	-1.015	-4.223	-4.083	
HMEAVYIDIAD [PITPNA_Y140_V136M]		1.696	1.841	1.927	Screen (c-Src kinase domain [1]; [9]): 0.9488
DNEALYDICFC [TUBB3_Y208_R213C]					Screen (c-Src kinase domain [1]; [9]): 0.09389; Screen (Fer kinase domain; [10]): 0.2993; Screen (variant relative to reference peptide, measured in the pTyr-Var library screen) (EPHB1 kinase domain [2]): -0.1227; Screen (EPHB2 kinase domain; [11]): 0.1536
Ac-IGEGTYGQVFK-NH2 [CDK13_Y716_YF]					Phosphorylation Rate (c-Src kinase domain [3]): 3.100 s⁻¹
TTSQLYDAMPI [PDPK1_Y9_V12M]		-0.6658	-0.6854	-1.368	Screen (c-Src kinase domain [1]; [9]): -0.9144
Ac-IGEGTYGTVFK-NH2 [CDK5-Y15]					Phosphorylation Rate (c-Src kinase domain [3]): 2.587 s⁻¹; Phosphorylation Rate (c-Abl kinase domain [4]): 0.085 s⁻¹
LEDPMYDIIRD [RP9_Y142_H137L]			0.4802	0.7516	Screen (c-Src kinase domain [1]; [9]): 0.5395; Screen (Fer kinase domain; [10]): 0.5422
FNSLLYQVPTS [CALCOCO2_Y358_P357L]	2.72	3.519	4.751	5.149	
Ac-IGEGTYRQVFK-NH2 [CDK13_Y716_G717R_YF, pTyr-Var library variant phosphosite peptide]	-4.535				Phosphorylation Rate (c-Src kinase domain [3]): 0.195 s⁻¹
ITNHIYTWVDP [DFNB31_Y234_V229I]	0.3882	-0.03067	0.06659	-0.0087	
LHNLFYQLEAE [PKP2_Y616_S615F]		1.632		1.672	Screen (c-Src kinase domain [1]; [9]): 4.082
AAAAVYTFLPD [MYORG_Y36_M35V]		0.8509	0.3532	0.71	Screen (c-Src kinase domain [1]; [9]): 0.6423
ITSLLYHVVGW [GBA_Y412_N409S]	-0.3669	0.08882	-0.08421	-0.2083	
Ac-GPPEPNYEVIPPKKKG-NH2 [EPHB1 Consensus, EPHB1 consensus substrate peptide from X5-Y-X5 screen]					phosphorylation of consensus peptide by EPHB1 (initial rate relative to cognate consensus) (EPHB1 kinase domain [5]): did not prefer
Ac-GNLLIYTELGK-NH2 [HGD_Y166_F169L, pTyr-Var library variant peptide, non-canonical c-Abl substrate]	-0.3242		1.156	1.177	Phosphorylation Rate (c-Abl kinase domain [4]): 0.238 s⁻¹
RRIHSYRGFLW [VHL_Y112_H115Y_YF]					Screen (c-Src kinase domain [1]; [9]): -2.75; Screen (c-Abl kinase domain [6]): -4.49; Screen (variant relative to reference peptide, measured in the pTyr-Var library screen) (EPHB1 kinase domain [2]): -2.336; Screen (EPHB2 kinase domain; [11]): -0.9029
B1					Kd [7]: 160 nM
Ac-GPDEPIYAVPPIKKKG-NH2 [Abl Consensus peptide Ac-…-NH2]					KM (μM) of phosphorylation, Michaelis-Menten analysis, ADP-Quest assay [8]: 6 µM
